The structures appear in SMILES notation.

This assay has as its system Wnt stimulated TCF transcriptional activity, HEK293-TS 112 TCF reporter cell line. In words: Tankyrase 1 Assay (Example 119): Wnt3A-stimulated TOPbrite TCF luciferase reporter. The assay is classed as cell-based. Particulars: Compounds I-59 to I-144, procedure in Example 119 (0.5 ug/mL Wnt3A, 16 hours); read-out: TNKS1 (IC50). Here is the method: Inhibition of the Wnt stimulated TCF transcriptional activity by tankyrase inhibitors was determined utilizing a HEK293-TS 112 TCF reporter cell line. A Wnt-responsive luciferase reporter named TOPbrite was constructed by cloning the enhancer element of Super8xTOPFlash containing eight TCF/LEF binding sites into the pGL4.28 vector (Promega) upstream of the minimal promoter element, and selecting for hygromycin B resistance (50 μg/ml). Cells were seeded into 384-well plates in the presence of 0.5 ug/mL of Wnt3A at a density of 20,000 cells per well in 25 ul of F:12 DMEM media supplemented with 10% FBS and 2 mM Glutamax. Cells seeded without the addition of Wnt3A were used as background signal. Compounds of various concentrations were added to cells and incubated at 37 degrees with 5% CO2 for 16 hours. The assay was terminated with the addition of Promega Dual Glo kit per manufacturer's instructions. A ratio of TOPbrite Firefly Luciferase and SV40 Renillla Luciferase was calculated and the background from the neutral wells was subtracted yielding the final normalized measurement of TCF transcriptional activity. Compound IC50s were determined by four-parameter curve fitting using GeneData software.
In general terms: Reporter assays use an easily measured gene product as a stand-in for the process of interest.
Consider `Cc1noc(C2(C)CCN(c3nc4c(cnn4C)c(=O)[nH]3)CC2)n1` [Compound I-91, 1-methyl-6-[4-methyl-4-(3-methyl-1 2 4-oxadiazol-5-yl)-1-piperidyl]-5H-pyrazolo[3 4-d]pyrimidin-4-one], for which the half-inhibitory concentration (IC50) amounted to 0.0241 µM.

Consider `CCn1ccc(C2(C)CCN(c3nc4c(cnn4C)c(=O)[nH]3)CC2)n1` [Compound I-92, 6-[4-(1-ethylpyrazol-3-yl)-4-methyl-1-piperidyl]-1-methyl-5H-pyrazolo[3 4-d]pyrimidin-4-one], for which the 50% inhibitory concentration (IC50) came out at 0.0245 µM.

Take `Cn1ncc2c(=O)[nH]c(N3CCC(O)(c4ccc(F)cc4)CC3)nc21` [Compound I-93, 6-[4-(4-fluorophenyl)-4-hydroxy-1-piperidyl]-1-methyl-5H-pyrazolo[3 4-d]pyrimidin-4-one]: the IC50 came to 0.0246 µM.

Regarding `COCCOc1cc(F)c(N2CCN(c3nc4c(cnn4CCO)c(=O)[nH]3)CC2)c(F)c1` [Compound I-94, 6-[4-[2 6-difluoro-4-(2-methoxyethoxy)phenyl]piperazin-1-yl]-1-(2-hydroxyethyl)-5H-pyrazolo[3 4-d]pyrimidin-4-one], the IC50 came out at 0.264 µM.

`COCCOc1cc(F)c(N2CCN(c3nc4c(cnn4CCCO)c(=O)[nH]3)CC2)c(F)c1` [Compound I-95, 6-[4-[2 6-difluoro-4-(2-methoxyethoxy)phenyl]piperazin-1-yl]-1-(3-hydroxypropyl)-5H-pyrazolo[3 4-d]pyrimidin-4-one]: the concentration for half-maximal inhibition (IC50) worked out at 0.027 µM.

As to `Cn1nccc1C1(C)CCN(c2nc3c(cnn3C)c(=O)[nH]2)CC1` [Compound I-96, 1-methyl-6-[4-methyl-4-(2-methylpyrazol-3-yl)-1-piperidyl)-5H-pyrazolo[3 4-d]pyrimidin-4-one], the IC50 came out at 0.0284 µM.

In the case of `Cn1ncc2c(=O)[nH]c(N3CCC(c4n[nH]c5ncccc45)CC3)nc21` [Compound I-97, 1-methyl-6-[4-(1H-pyrazolo[3 4-b]pyridin-3-yl)-1-piperidyl]-5H-pyrazolo[3 4-d]pyrimidin-4-one], the IC50 is 0.0319 µM.

For `CCCn1ccc(C2(C)CCN(c3nc4c(cnn4C)c(=O)[nH]3)CC2)n1` [Compound I-98, 1-methyl-6-[4-methyl-4-(1-propylpyrazol-3-yl)-1-piperidyl]-5H-pyrazolo[3 4-d]pyrimidin-4-one], the half-maximal inhibitory concentration (IC50) worked out at 0.0374 µM.

`CC(O)Cn1ccc(C2(C)CCN(c3nc4c(cnn4C)c(=O)[nH]3)CC2)n1` (centres unmarked) [Compound I-99, 6-[4-[1-(2-hydroxypropyl)pyrazol-3-yl]-4-methyl-1-piperidyl]-1-methyl-5H-pyrazolo[3 4-d]pyrimidin-4-one]: the IC50 came out at 0.0419 µM.

Consider `Cn1cncc1C1CCN(c2nc3c(cnn3C)c(=O)[nH]2)CC1` [Compound I-100, 1-methyl-6-[4-(3-methylimidazol-4-yl)-1-piperidyl]-5H-pyrazolo[3 4-d]pyrimidin-4-one], for which the 50% inhibitory concentration (IC50) came to 0.0438 µM.

On to `Cn1ncc2c(=O)[nH]c(N3CCC(c4ccccc4)CC3)nc21` [Compound I-101, 1-methyl-6-(4-phenyl-1-piperidyl)-5H-pyrazolo[3 4-d]pyrimidin-4-one], for which the IC50 was 0.0462 µM.

As for `Cn1ncc2c(=O)[nH]c(-c3ccc(S(C)(=O)=O)cc3)nc21` [Compound I-102, 1-methyl-6-(4-methylsulfonylphenyl)-5H-pyrazolo[3 4-d]pyrimidin-4-one], the half-inhibitory concentration (IC50) came out at 0.0479 µM.

For `Cn1ncc2c(=O)[nH]c(N3CCN(C4CC5CCC4C5)CC3)nc21` (centres unmarked) [Compound I-103, 1-methyl-6-(4-norbornan-2-ylpiperazin-1-yl)-5H-pyrazolo[3 4-d]pyrimidin-4-one], the half-maximal inhibitory concentration (IC50) amounted to 0.0502 µM.

For `O=c1[nH]c(N2CCN(c3c(F)cc(F)cc3F)CC2)nc2[nH]ncc12` [Compound I-104, 6-[4-(2 4 6-trifluorophenyl)piperazin-1-yl]-1 5-dihydropyrazolo[3 4-d]pyrimidin-4-one], the IC50 turned out to be 0.055 µM.

As to `Cn1cc(N2CCN(c3nc4c(cnn4C)c(=O)[nH]3)CC2)cn1` [Compound I-105, 1-methyl-6-[4-(1-methylpyrazol-4-yl)piperazin-1-yl]-5H-pyrazolo[3 4-d]pyrimidin-4-one], the 50% inhibitory concentration (IC50) is 0.0639 µM.

As to `Cn1ncc2c(=O)[nH]c(N3CCC(c4nc(-c5cnccn5)no4)CC3)nc21` [Compound I-106, 1-methyl-6-[4-(3-pyrazin-2-yl-1 2 4-oxadiazol-5-yl)-1-piperidyl]-5H-pyrazolo[3 4-d]pyrimidin-4-one], the IC50 turned out to be 0.0641 µM.

On to `CCS(=O)(=O)c1ccc(-c2nc3c(cnn3C)c(=O)[nH]2)cc1` [Compound I-107, 6-(4-ethylsulfonylphenyl)-1-methyl-5H-pyrazolo[3 4-d]pyrimidin-4-one], for which the half-inhibitory concentration (IC50) was 0.0681 µM.

`Cn1ncc2c(=O)[nH]c(-c3ccc(S(=O)(=O)CC4CCCCC4)cc3)nc21` [Compound I-108, 6-[4-(cyclohexylmethylsulfonyl)phenyl]-1-methyl-5H-pyrazolo[3 4-d]pyrimidin-4-one]: the IC50 turned out to be 0.0684 µM.

For `Cn1ncc2c(=O)[nH]c(N3CCC(c4ccncc4)CC3)nc21` [Compound I-109, 1-methyl-6-[4-(4-pyridyl)-1-piperidyl)-5H-pyrazolo[3 4-d]pyrimidin-4-one], the IC50 came out at 0.0806 µM.

With `Cn1ncc2c(=O)[nH]c(N3CCN(CC4CCCCC4)CC3)nc21` [Compound I-110, 6-[4-(cyclohexylmethyl)piperazin-1-yl]-1-methyl-5H-pyrazolo[3 4-d]pyrimidin-4-one], the IC50 worked out at 0.0809 µM.

In the case of `Cn1ncc2c(=O)[nH]c(N3CCC(c4ccccn4)CC3)nc21` [Compound I-111, 1-methyl-6-[4-(2-pyridyl)-1-piperidyl]-5H-pyrazolo[3 4-d]pyrimidin-4-one], the IC50 is 0.0838 µM.

Consider `Cn1ncc2c(=O)[nH]c(N3CCC(n4cccn4)CC3)nc21` [Compound I-112, 1-methyl-6-(4-pyrazol-1-yl-1-piperidyl)-5H-pyrazolo[3 4-d]pyrimidin-4-one], for which the concentration for half-maximal inhibition (IC50) is 0.0883 µM.

As for `COCCOc1cc(F)c(N2CCN(c3nc4c(cnn4CC(O)CO)c(=O)[nH]3)CC2)c(F)c1` (centres unmarked) [Compound I-113, 6-[4-[2 6-difluoro-4-(2-methoxyethoxy)phenyl]piperazin-1-yl]-1-(2 3-dihydroxypropyl)-5H-pyrazolo[3 4-d]pyrimidin-4-one], the half-inhibitory concentration (IC50) amounted to 0.09 µM.

As for `Cn1cncc1C1CCN(c2nc3c(cnn3C)c(=O)[nH]2)C1` (centres unmarked) [Compound I-114, 1-methyl-6-[3-(3-methylimidazol-4-yl)pyrrolidin-1-yl]-5H-pyrazolo[3 4-d]pyrimidin-4-one], the IC50 was determined as 0.0903 µM.

As for `Cc1c[nH]nc1C1CCN(c2nc3c(cnn3C)c(=O)[nH]2)CC1` [Compound I-115, 1-methyl-6-[4-(4-methyl-1H-pyrazol-3-yl)-1-piperidyl]-5H-pyrazolo[3 4-d]pyrimidin-4-one], the IC50 came out at 0.107 µM.

With `Cn1ncc2c(=O)[nH]c(N3CCN(CC4CCOCC4)CC3)nc21` [Compound I-116, 1-methyl-6-[4-(tetrahydropyran-4-ylmethyl)piperazin-1-yl]-5H-pyrazolo[3 4-d]pyrimidin-4-one], the IC50 was found to be 0.112 µM.

For the molecule `Cn1ncc2c(=O)[nH]c(N3CCC(Cc4ccccn4)CC3)nc21` [Compound I-117, 1-methyl-6-[4-(2-pyridylmethyl)-1-piperidyl]-5H-pyrazolo[3 4-d]pyrimidin-4-one], the IC50 was found to be 0.112 µM.

As to `Cn1ncc2c(=O)[nH]c(N3CCN(C4CCCCC4)CC3)nc21` [Compound I-118, 6-(4-cyclohexylpiperazin-1-yl)-1-methyl-5H-pyrazolo[3 4-d]pyrimidin-4-one], the 50% inhibitory concentration (IC50) was 0.122 µM.

With `CC(C)n1ccc(C2(C)CCN(c3nc4c(cnn4C)c(=O)[nH]3)CC2)n1` [Compound I-119, 6-[4-(1-isopropylpyrazol-3-yl)-4-methyl-1-piperidyl]-1-methyl-5H-pyrazolo[3 4-d]pyrimidin-4-one], the half-inhibitory concentration (IC50) is 0.124 µM.

Regarding `Cn1ncc2c(=O)[nH]c(N3CCN([C@H]4CC[C@H](O)CC4)CC3)nc21` [Compound I-120, 6-[4-(4-hydroxycyclohexyl)piperazin-1-yl]-1-methyl-5H-pyrazolo[3 4-d]pyrimidin-4-one], the half-inhibitory concentration (IC50) came out at 0.153 µM.

Take `COCCO[C@H]1CC[C@H](N2CCN(c3nc4c(cnn4C)c(=O)[nH]3)CC2)CC1` [Compound I-121, 6-[4-[4-(2-methoxyethoxy)cyclohexyl]piperazin-1-yl]-1-methyl-5H-pyrazolo[3 4-d]pyrimidin-4-one]: the concentration for half-maximal inhibition (IC50) worked out at 0.159 µM.

Regarding `Cn1cnnc1C1CCN(c2nc3c(cnn3C)c(=O)[nH]2)CC1` [Compound I-122, 1-methyl-6-[4-(4-methyl-1 2 4-triazol-3-yl)-1-piperidyl]-5H-pyrazolo[3 4-d]pyrimidin-4-one], the concentration for half-maximal inhibition (IC50) was 0.163 µM.

For `COCCOc1cc(F)c(N2CCN(c3nc4c(cnn4C4CCOCC4)c(=O)[nH]3)CC2)c(F)c1` [Compound I-123, 6-[4-[2 6-difluoro-4-(2-methoxyethoxy)phenyl]piperazin-1-yl]-1-tetrahydropyran-4-yl-5H-pyrazolo[3 4-d]pyrimidin-4-one], the 50% inhibitory concentration (IC50) is 0.168 µM.

Consider `Cn1ncc2c(=O)[nH]c(N3CCN([C@H]4CC[C@@H](O)CC4)CC3)nc21` [Compound I-124, 6-[4-(4-hydroxycyclohexyl)piperazin-1-yl]-1-methyl-5H-pyrazolo[3 4-d]pyrimidin-4-one], for which the IC50 turned out to be 0.171 µM.

`Cn1ncc2c(=O)[nH]c(-c3ccc(S(=O)(=O)C4CCCCC4)cc3)nc21` [Compound I-125, 6-(4-cyclohexylsulfonylphenyl)-1-methyl-5H-pyrazolo[3 4-d]pyrimidin-4-one]: the IC50 turned out to be 0.178 µM.

The term IC50 denotes the point on the concentration scale where inhibition reaches its midpoint.

These data come from patent publication US20130345215A1, “PYRAZOLOPYRIMIDONE AND PYRAZOLOPYRIDONE INHIBITORS OF TANKYRASE” (Genentech, Inc., priority 2012, published 2013).
